Laboratory results published in patent US20100137260A1, “COMPOUND FOR INHIBITING TRPV3 FUNCTION AND USE THEREOF” (Korea University Industry and Academic Collaboration …, priority 2008, published 2010).

Tested on: HaCat skin cells
Assay: Artificial wound recovery (cell migration and proliferation) in HaCat cells (FIG. 3)
Type: cell-based
Conditions: 12 hours; for Migration and proliferation of HaCaT cells in medium containing camphor: medium containing 4 mM camphor, IPP 10 μM, FPP 1 μM, GPP 10 μM
Experimental: The present inventors drew lines 1 mm deep on the well fully filled with the cells to make artificial wound. The wounded cells were treated with IPP (10 μM), FPP (1 μM) and GPP (10 μM: geranyl pyrophosphate, Biomol, USA) respectively and incubated in a CO2 incubator for 12 hours. The control group was not-treated. The width of recovered wound was measured under microscope and compared with that at the beginning, which was presented as wound recovery rate. All the experiments were performed on DMEM/FBS. Floating cells, which means dead cells, after making wound, were eliminated by using PBS to eliminate variables caused by dead cells. The cells were observed under microscope (×40), and distance was measured by using image analysis program (Meta-flour 7.1 Molecular Devices, USA).

Row | Compound | Migration and proliferation of HaCat skin cells, compound alone (FPP alone (1 μM)) | Migration and proliferation of HaCaT cells in medium containing camphor
1 | CC(C)=CCC/C(C)=C/CC/C(C)=C/COP(=O)(O)OP(=O)(O)O [FPP] | confirmed the inhibitory effect | inhibitory effect was not observed
2 | CC(C)=CCC/C(C)=C/COP(=O)(O)OP(=O)(O)O [GPP, geranyl pyrophosphate] |  | inhibitory effect was not observed
